Measured values published in PubChem BioAssay (NCI).
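The compound was tested at five concentrations on cells cultured in 96-well plates, with a 48-hour exposure period. TGI: concentration producing complete growth inhibition.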

Legend:
Assay in all cases: NCI-60 cell line screen, 48 h
NCI-H226 lung = tested on: NCI-H226 lung
HCT-116 colon = tested on: HCT-116 colon
KM20L2 colon = tested on: KM20L2 colon
CCRF-CEM leukemia = tested on: CCRF-CEM leukemia
TK-10 renal = tested on: TK-10 renal
M19-MEL melanoma = tested on: M19-MEL melanoma
EKVX NSCLC = tested on: EKVX NSCLC
RPMI-8226 leukemia = tested on: RPMI-8226 leukemia
CAKI-1 renal = tested on: CAKI-1 renal
SF-295 CNS = tested on: SF-295 CNS
A549 NSCLC = tested on: A549 NSCLC
U251 CNS = tested on: U251 CNS
SNB-19 CNS = tested on: SNB-19 CNS
UACC-257 melanoma = tested on: UACC-257 melanoma
NCI-H460 lung = tested on: NCI-H460 lung
A498 renal = tested on: A498 renal
HT29 colon = tested on: HT29 colon
SK-OV-3 ovarian = tested on: SK-OV-3 ovarian
DLD-1 colon = tested on: DLD-1 colon
RXF 393 renal = tested on: RXF 393 renal
OVCAR-3 ovarian = tested on: OVCAR-3 ovarian
SN12C renal = tested on: SN12C renal
SNB-78 CNS = tested on: SNB-78 CNS
SF-268 CNS = tested on: SF-268 CNS
HOP-18 NSCLC = tested on: HOP-18 NSCLC
SK-MEL-2 melanoma = tested on: SK-MEL-2 melanoma
HOP-92 NSCLC = tested on: HOP-92 NSCLC
DMS 273 small cell lung = tested on: DMS 273 small cell lung
HCC-2998 colon = tested on: HCC-2998 colon
ACHN renal = tested on: ACHN renal
IGROV1 ovarian = tested on: IGROV1 ovarian
MOLT-4 leukemia = tested on: MOLT-4 leukemia
786-0 renal = tested on: 786-0 renal
UO-31 renal = tested on: UO-31 renal
SK-MEL-28 melanoma = tested on: SK-MEL-28 melanoma
HOP-62 NSCLC = tested on: HOP-62 NSCLC
M14 melanoma = tested on: M14 melanoma
KM12 colon = tested on: KM12 colon
SF-539 CNS = tested on: SF-539 CNS
NCI-H522 lung = tested on: NCI-H522 lung
OVCAR-4 ovarian = tested on: OVCAR-4 ovarian
SW-620 colon = tested on: SW-620 colon
SNB-75 CNS = tested on: SNB-75 CNS
NCI-H23 lung = tested on: NCI-H23 lung
MALME-3M melanoma = tested on: MALME-3M melanoma
RXF-631 renal = tested on: RXF-631 renal
SK-MEL-5 melanoma = tested on: SK-MEL-5 melanoma
OVCAR-5 ovarian = tested on: OVCAR-5 ovarian
UACC-62 melanoma = tested on: UACC-62 melanoma
SR leukemia = tested on: SR leukemia
OVCAR-8 ovarian = tested on: OVCAR-8 ovarian
DMS 114 small cell lung = tested on: DMS 114 small cell lung
LXFL 529 NSCLC = tested on: LXFL 529 NSCLC
K-562 leukemia = tested on: K-562 leukemia
HL-60(TB) leukemia = tested on: HL-60(TB) leukemia
COLO 205 colon = tested on: COLO 205 colon
LOX IMVI melanoma = tested on: LOX IMVI melanoma
HCT-15 colon = tested on: HCT-15 colon

Compound: CCCCCCCCCCCCCCCC(=O)OCC1OC(n2cc(F)c(=O)[nH]c2=O)C(NC(=O)N(CCCl)N=O)C(O)C1O (configuration not stated)
- TGI (NCI-H226 lung): 24 µM
- TGI (HCT-116 colon): 3.07 µM
- TGI (KM20L2 colon): 18.4 µM
- TGI (CCRF-CEM leukemia): 6.58 µM
- TGI (TK-10 renal): 26.1 µM
- TGI (M19-MEL melanoma): 9.91 µM
- TGI (EKVX NSCLC): 7.18 µM
- TGI (RPMI-8226 leukemia): 20.5 µM
- TGI (CAKI-1 renal): 20.5 µM
- TGI (SF-295 CNS): 6.03 µM
- TGI (A549 NSCLC): 7.14 µM
- TGI (U251 CNS): 3.74 µM
- TGI (SNB-19 CNS): 8.71 µM
- TGI (UACC-257 melanoma): 17.8 µM
- TGI (NCI-H460 lung): 4.81 µM
- TGI (A498 renal): 10.1 µM
- TGI (HT29 colon): 14.1 µM
- TGI (SK-OV-3 ovarian): 14.3 µM
- TGI (DLD-1 colon): 12.5 µM
- TGI (RXF 393 renal): 8.37 µM
- TGI (OVCAR-3 ovarian): 20.9 µM
- TGI (SN12C renal): 15.6 µM
- TGI (SNB-78 CNS): 18.1 µM
- TGI (SF-268 CNS): 2.83 µM
- TGI (HOP-18 NSCLC): 33.3 µM
- TGI (SK-MEL-2 melanoma): 3.3 µM
- TGI (HOP-92 NSCLC): 11.6 µM
- TGI (DMS 273 small cell lung): 4.3 µM
- TGI (HCC-2998 colon): 11.3 µM
- TGI (ACHN renal): 10.9 µM
- TGI (IGROV1 ovarian): 18.1 µM
- TGI (MOLT-4 leukemia): > 39.9 µM
- TGI (786-0 renal): 3.59 µM
- TGI (UO-31 renal): 29.6 µM
- TGI (SK-MEL-28 melanoma): 7.96 µM
- TGI (HOP-62 NSCLC): 2.34 µM
- TGI (M14 melanoma): 11.7 µM
- TGI (KM12 colon): 4.91 µM
- TGI (SF-539 CNS): 1.36 µM
- TGI (NCI-H522 lung): 10 µM
- TGI (OVCAR-4 ovarian): 20.5 µM
- TGI (SW-620 colon): 6.58 µM
- TGI (SNB-75 CNS): 1.56 µM
- TGI (NCI-H23 lung): 2.84 µM
- TGI (MALME-3M melanoma): 10.1 µM
- TGI (RXF-631 renal): 17.9 µM
- TGI (SK-MEL-5 melanoma): 9.8 µM
- TGI (OVCAR-5 ovarian): 25.9 µM
- TGI (UACC-62 melanoma): 1.17 µM
- TGI (SR leukemia): 5.8 µM
- TGI (OVCAR-8 ovarian): 9.69 µM
- TGI (DMS 114 small cell lung): 5.02 µM
- TGI (LXFL 529 NSCLC): 15.8 µM
- TGI (K-562 leukemia): 25.6 µM
- TGI (HL-60(TB) leukemia): 7.69 µM
- TGI (COLO 205 colon): 9.51 µM
- TGI (LOX IMVI melanoma): 2.24 µM
- TGI (HCT-15 colon): 15.1 µM

Compound: COc1ccc(-c2cc(-c3ccco3)c(C#N)c(=O)[nH]2)cc1
- TGI (NCI-H226 lung): > 100 µM
- TGI (HCT-116 colon): > 100 µM
- TGI (KM20L2 colon): > 100 µM
- TGI (CCRF-CEM leukemia): > 100 µM
- TGI (TK-10 renal): > 100 µM
- TGI (M19-MEL melanoma): > 100 µM
- TGI (EKVX NSCLC): > 100 µM
- TGI (RPMI-8226 leukemia): > 100 µM
- TGI (SF-295 CNS): > 100 µM
- TGI (A549 NSCLC): > 100 µM
- TGI (U251 CNS): 40.1 µM
- TGI (SNB-19 CNS): > 100 µM
- TGI (UACC-257 melanoma): > 100 µM
- TGI (NCI-H460 lung): > 100 µM
- TGI (A498 renal): > 100 µM
- TGI (HT29 colon): > 100 µM
- TGI (SK-OV-3 ovarian): 72.2 µM
- TGI (DLD-1 colon): > 100 µM
- TGI (RXF 393 renal): > 100 µM
- TGI (OVCAR-3 ovarian): 53.8 µM
- TGI (SN12C renal): > 100 µM
- TGI (SNB-78 CNS): > 100 µM
- TGI (SF-268 CNS): > 100 µM
- TGI (HOP-18 NSCLC): 74.8 µM
- TGI (HOP-92 NSCLC): > 100 µM
- TGI (DMS 273 small cell lung): > 100 µM
- TGI (HCC-2998 colon): > 100 µM
- TGI (ACHN renal): > 100 µM
- TGI (IGROV1 ovarian): > 100 µM
- TGI (MOLT-4 leukemia): > 100 µM
- TGI (786-0 renal): > 100 µM
- TGI (UO-31 renal): > 100 µM
- TGI (SK-MEL-28 melanoma): > 100 µM
- TGI (HOP-62 NSCLC): 72.1 µM
- TGI (M14 melanoma): > 100 µM
- TGI (KM12 colon): > 100 µM
- TGI (SF-539 CNS): 53.9 µM
- TGI (NCI-H522 lung): 54 µM
- TGI (OVCAR-4 ovarian): > 100 µM
- TGI (SW-620 colon): > 100 µM
- TGI (SNB-75 CNS): > 100 µM
- TGI (NCI-H23 lung): > 100 µM
- TGI (MALME-3M melanoma): 75.7 µM
- TGI (RXF-631 renal): > 100 µM
- TGI (OVCAR-5 ovarian): > 100 µM
- TGI (UACC-62 melanoma): > 100 µM
- TGI (OVCAR-8 ovarian): > 100 µM
- TGI (DMS 114 small cell lung): > 100 µM
- TGI (LXFL 529 NSCLC): > 100 µM
- TGI (K-562 leukemia): > 100 µM
- TGI (HL-60(TB) leukemia): > 100 µM
- TGI (COLO 205 colon): > 100 µM
- TGI (LOX IMVI melanoma): > 100 µM
- TGI (HCT-15 colon): > 100 µM
